These results are taken from ChEMBL document CHEMBL4706690, “Identification of BR102910 as a selective fibroblast activation protein (FAP) inhibitor” (Bioorg Med Chem Lett, 2021).

Each structure is given as a SMILES string. Calls of active or inactive are those of the source. The rule behind the calls is not given here.

One assay addresses T1, Prolyl endopeptidase FAP (Homo sapiens, UniProt Q12884).
T1 sequence (Q12884 whole entry): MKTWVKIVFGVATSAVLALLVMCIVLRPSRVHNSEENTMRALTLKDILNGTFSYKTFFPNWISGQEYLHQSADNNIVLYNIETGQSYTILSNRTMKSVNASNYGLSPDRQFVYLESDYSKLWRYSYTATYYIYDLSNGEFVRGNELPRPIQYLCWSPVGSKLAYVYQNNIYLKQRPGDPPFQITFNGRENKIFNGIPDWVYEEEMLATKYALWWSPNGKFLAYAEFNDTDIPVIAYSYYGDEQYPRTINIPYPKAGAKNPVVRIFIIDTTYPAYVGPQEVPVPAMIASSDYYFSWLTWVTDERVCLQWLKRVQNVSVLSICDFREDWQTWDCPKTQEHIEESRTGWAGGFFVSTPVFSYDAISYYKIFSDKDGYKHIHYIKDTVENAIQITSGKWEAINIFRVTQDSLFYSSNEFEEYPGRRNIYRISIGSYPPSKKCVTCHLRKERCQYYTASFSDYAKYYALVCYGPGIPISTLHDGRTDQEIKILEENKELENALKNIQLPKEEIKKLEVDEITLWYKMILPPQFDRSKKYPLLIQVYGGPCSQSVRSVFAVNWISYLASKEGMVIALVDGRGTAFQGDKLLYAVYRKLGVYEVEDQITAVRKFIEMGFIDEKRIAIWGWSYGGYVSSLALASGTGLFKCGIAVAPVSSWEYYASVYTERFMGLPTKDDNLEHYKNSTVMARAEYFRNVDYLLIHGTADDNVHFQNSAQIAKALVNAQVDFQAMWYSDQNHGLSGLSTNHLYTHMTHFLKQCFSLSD
Briefly: Inhibition of FAP (unknown origin) using AMC substrate by fluorometric assay.

The target in the next assay is T2, Prolyl endopeptidase (Homo sapiens, UniProt P48147).
T2 sequence (P48147 whole entry): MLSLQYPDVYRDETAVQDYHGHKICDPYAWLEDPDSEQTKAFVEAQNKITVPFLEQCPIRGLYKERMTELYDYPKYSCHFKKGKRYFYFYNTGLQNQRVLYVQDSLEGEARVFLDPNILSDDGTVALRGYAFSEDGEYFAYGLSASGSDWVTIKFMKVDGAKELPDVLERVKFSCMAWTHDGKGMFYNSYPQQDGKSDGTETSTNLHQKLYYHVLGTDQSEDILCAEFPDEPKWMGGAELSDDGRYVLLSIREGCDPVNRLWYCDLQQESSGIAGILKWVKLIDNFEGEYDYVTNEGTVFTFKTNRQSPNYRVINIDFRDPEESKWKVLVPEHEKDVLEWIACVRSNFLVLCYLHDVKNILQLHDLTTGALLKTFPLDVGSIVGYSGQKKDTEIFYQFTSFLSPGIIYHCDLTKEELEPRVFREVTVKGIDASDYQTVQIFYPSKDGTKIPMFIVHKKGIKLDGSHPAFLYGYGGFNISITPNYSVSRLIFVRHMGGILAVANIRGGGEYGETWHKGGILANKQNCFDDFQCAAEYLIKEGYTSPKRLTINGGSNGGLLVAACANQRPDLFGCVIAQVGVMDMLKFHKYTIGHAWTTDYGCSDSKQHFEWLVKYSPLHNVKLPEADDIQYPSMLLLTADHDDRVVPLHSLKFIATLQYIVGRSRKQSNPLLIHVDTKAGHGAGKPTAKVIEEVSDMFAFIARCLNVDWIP

In the next assay the target is Dipeptidyl peptidase 4 (Homo sapiens, UniProt P27487). Briefly: Inhibition of DPP4 (unknown origin) using AMC substrate by fluorometric assay.
Chain of Dipeptidyl peptidase 4 (P27487 whole entry): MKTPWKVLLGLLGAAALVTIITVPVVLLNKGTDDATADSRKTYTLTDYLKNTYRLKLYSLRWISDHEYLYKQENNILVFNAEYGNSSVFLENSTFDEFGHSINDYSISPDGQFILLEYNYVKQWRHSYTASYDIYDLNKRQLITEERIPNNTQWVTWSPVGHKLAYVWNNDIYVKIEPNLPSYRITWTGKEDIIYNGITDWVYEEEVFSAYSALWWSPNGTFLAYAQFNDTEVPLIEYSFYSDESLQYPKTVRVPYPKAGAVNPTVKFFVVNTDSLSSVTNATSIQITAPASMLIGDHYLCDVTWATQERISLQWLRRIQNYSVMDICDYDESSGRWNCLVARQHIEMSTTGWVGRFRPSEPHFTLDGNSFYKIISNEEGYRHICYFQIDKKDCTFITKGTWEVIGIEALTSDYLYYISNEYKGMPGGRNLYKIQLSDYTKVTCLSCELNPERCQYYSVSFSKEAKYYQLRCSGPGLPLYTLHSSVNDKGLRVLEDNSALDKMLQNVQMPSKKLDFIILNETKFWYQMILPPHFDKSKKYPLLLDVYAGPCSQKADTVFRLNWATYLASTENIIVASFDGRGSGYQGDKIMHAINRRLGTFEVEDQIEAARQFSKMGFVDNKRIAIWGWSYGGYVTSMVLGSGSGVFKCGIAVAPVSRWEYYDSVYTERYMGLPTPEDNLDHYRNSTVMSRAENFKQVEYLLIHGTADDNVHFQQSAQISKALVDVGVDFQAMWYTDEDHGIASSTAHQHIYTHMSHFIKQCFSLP
Assay [1] addresses Prolyl endopeptidase FAP (Homo sapiens) (UniProt Q12884). Put plainly: Inhibition of FAP (unknown origin) at 1 uM TR-FRET assay relative to control. (In general: TR-FRET usually uses a lanthanide donor and a delayed reading to cut background.)
For assay [2], the species on record is Mus musculus. The note with it: C57BL/6J, dose 10-30 mg/kg, time hrs <=6.
Assay [3] deals with Mus musculus. Put plainly: Antidiabetic activity in ob/ob mouse assessed as reduction in plasma glucose level treated single oral dose of compound and recombinant human FGF21 intraperitoneally 60 mins prior to glucose challenge by OGTT. The class given is functional, organism-based. The note with it: dose 20-50 mg/kg.
The species entered for assay [4] is Mus musculus. The note with it: dose 20-50 mg/kg, time hrs <=9.
The next assay deals with Dipeptidyl peptidase 2 (Homo sapiens, UniProt Q9UHL4). Briefly: Inhibition of DPP2 (unknown origin) using AMC substrate by fluorometric assay.

Consider `N#C[C@@H]1CC(F)(F)CN1C(=O)CNC(=O)c1csc(-c2ccc(C(F)(F)F)cc2)n1`, for which the IC50 against Prolyl endopeptidase FAP is 77 nM; against Prolyl endopeptidase, 1380 nM; at Dipeptidyl peptidase 4 it was over 100 µM. For the same compound, in assay [1], the inhibition was 99%.

For the compound `C[S+]([O-])c1ccc(Cc2nc(C(=O)NCC(=O)N3CC(F)(F)C[C@H]3C#N)cs2)cc1` (some centres undefined), the half-inhibitory concentration (IC50) stood at 390 nM on Prolyl endopeptidase FAP, 1200 nM against Prolyl endopeptidase and 4.12 µM against Dipeptidyl peptidase 4. The compound also registered an inhibition in assay [1] of 95%.

For the compound `N#C[C@@H]1CC(F)(F)CN1C(=O)CNC(=O)c1csc(Cc2ccc(Cl)c(Cl)c2)n1`, the values for the IC50 against Prolyl endopeptidase FAP and at Dipeptidyl peptidase 4 were 2 nM and over 100 µM, respectively. Moreover, the inhibition result in the assay filed under Mus musculus [2] is “Dose-dependent effect”; in assay [1], 99%. Further, the Activity result in the assay on Mus musculus [3] was “Dose-dependent effect”. Moreover, the inhibition result in the assay filed under Mus musculus [4] was “Active”.

`C[C@@H](NC(=O)c1ccncc1)C(=O)N1CCC[C@H]1B(O)O`: the IC50 on Dipeptidyl peptidase 4 and at Dipeptidyl peptidase 2 was over 100 µM each time.

As for `N#Cc1ccc(Cc2nc(C(=O)NCC(=O)N3CC(F)(F)C[C@H]3C#N)cs2)cc1`, the half-inhibitory concentration (IC50) against Prolyl endopeptidase is 3200 nM; against Dipeptidyl peptidase 4 it was over 100 µM. In addition, the inhibition in assay [1] turned out to be 99.3%.

A word on the IC50: it is the concentration that inhibits the measured activity by half. Read a low IC50 as higher potency. The term inhibition denotes the share of the control response that was lost under treatment.
